Assay results as given in patent publication US9108854B2, “Biocidal colloidal dispersions of silica particles with silver ions adsorbed thereon” (PREBONA AB, priority 2009, dated 2015).

System: fungi
Experiment: Fungal growth on treated slices of French bread
Conditions: slice brushed on all sides with 1000 ppm Ag; 3 days in warm and humid atmosphere, 20-35° C.
Experimental: Slices of French bread from a local baker were used as substrates for fungal growth. • 1. Bread slice was brushed on all sides with the sol containing 1000 ppm Ag • 2. […] Bread slice was untreated.
The bread slices on a dinner plate were put in a plastic bag, which in turn was placed in a glassed-in porch where the temperature varied between 20 and 35° C. over the day.

silver nitrate [AgNO3 solution]
resistance of bread slice to fungi attack: affords some protection
